Patent publication US20130102631A1, “NOVEL MICROBIOCIDAL DIOXIME ETHER DERIVATIVES” (SYNGENTA CROP PROTECTION LLC, priority 2010, published 2013)

Legend:
[1] = test system: Monographella nivalis (Microdochium nivale); experiment: Monographella nivalis (Microdochium nivale) / liquid culture (foot rot cereals); type: cell-based; settings: at ≦200 ppm, liquid culture PDB, inhibition of growth photometrically 4-5 days after application, read-out: control of Monographella nivalis
Description: Monographella nivalis (Microdochium nivale)/Liquid Culture (Foot Rot Cereals): Conidia of the fungus from cryogenic storage were directly mixed into nutrient broth (PDB potato dextrose broth). After placing a DMSO solution of test compound into a 96-well microtiter plate, the nutrient broth containing the fungal spores was added. The test plates were incubated at 24° C. and the inhibition of growth was determined photometrically 4-5 days after application. […].57; 2.513; 2.559; 2.558; 2.556; 2.555; 2.374; 2.553; 2.551 (fraction B); 2.551 (fraction A); 2.548; 2.544; 2.542; 2.541; 2.539; 2.536; 2.535; 2.533; 2.530; 2.528; 2.526; 2.525 (fraction B); 2.525 (fraction A); 2.524; 2.519; 2.518; 2.516; 2.514; E/E-5.167; 2.512; 2.514

Gaeumannomyces graminis = Gaeumannomyces graminis / liquid culture (take-all of cereals); type: cell-based; settings: at ≦200 ppm, liquid culture PDB, inhibition of growth photometrically 4-5 days after application, read-out: control of Gaeumannomyces graminis
Description: Gaeumannomyces graminis/Liquid Culture (Take-All of Cereals): Mycelial fragments of the fungus from cryogenic storage were directly mixed into nutrient broth (PDB potato dextrose broth). After placing a DMSO solution of test compound into a 96-well microtiter plate, the nutrient broth containing the fungal spores is added. The test plates were incubated at 24° C. and the inhibition of growth was determined photometrically 4-5 days after application. […]-2.509; 5.561; 2.561; P.57; 2.513; 2.559; 2.558; 2.557; 2.556; 2.555; 2.374; 2.553; 2.552; 2.551 (fraction B); 2.551 (fraction A); 2.539; 2.533; 2.528; 2.526; 2.525 (fraction B); 2.525 (fraction A); 2.524; 2.523; 2.521; 2.520; 2.519; 2.510; 2.518; 2.516; 2.514; E/E-5.167; E/E-3.002; 2.512; E/E-2.508

[2] = test system: Mycosphaerella arachidis (Cercospora arachidicola); experiment: Mycosphaerella arachidis (Cercospora arachidicola) / liquid culture (early leaf spot); type: cell-based; settings: at ≦200 ppm, liquid culture PDB, inhibition of growth photometrically 4-5 days after application, read-out: control of Mycosphaerella arachidis
Description: Mycosphaerella arachidis (Cercospora arachidicola)/Liquid Culture (Early Leaf Spot): Conidia of the fungus from cryogenic storage were directly mixed into nutrient broth (PDB potato dextrose broth). After placing a DMSO solution of test compound into a 96-well microtiter plate, the nutrient broth containing the fungal spores was added. The test plates are incubated at 24° C. and the inhibition of growth was determined photometrically 4-5 days after application. […]-2.509; 5.561; 2.561; P.57; 2.513; 2.559; 2.558; 2.557; 2.556; 2.555; 2.374; 2.553; 2.552; 2.551 (fraction B); 2.551 (fraction A); 2.544; 2.541; 2.539; 2.537; 2.536; 2.533; 2.532; 2.531; 2.530; 2.528; 2.526; 2.525 (fraction B); 2.525 (fraction A); 2.524; 2.520; 2.519; 2.510; 2.518; 2.517; 2.516; 2.514; […].002; 2.512; 2.511; 2.514

[3] = test system: Mycosphaerella graminicola (Septoria tritici); experiment: Mycosphaerella graminicola (Septoria tritici) / liquid culture (Septoria blotch); type: cell-based; settings: Zymoseptoria tritici; at ≦200 ppm, liquid culture PDB, inhibition of growth photometrically 4-5 days after application; read-out: control of Mycosphaerella graminicola
[4] = test system: Blumeria graminis f. sp. tritici (Erysiphe graminis f. sp. tritici); experiment: Blumeria graminis f. sp. tritici / wheat / leaf disc preventative (powdery mildew on wheat); type: in vivo; settings: foliar, wheat leaf segments cv. Kanzler, inoculated 1 day after application, assessed 6-8 days after application
Description: Blumeria graminis f. sp. tritici (Erysiphe graminis f. sp. tritici)/Wheat/Leaf Disc Preventative (Powdery Mildew on Wheat):
Wheat leaf segments cv. Kanzler were placed on agar in a 24-well plate and sprayed with the formulated test compound diluted in water at an application rate of 200 ppm. The leaf disks were inoculated by shaking powdery mildew infected plants above the test plates 1 day after application. The inoculated leaf disks were incubated at 20° C. and 60% relative humidity under a light regime of 24 h darkness followed by 12 h/12 h (dark/light) in a climate chamber and the activity of a compound was assessed as percent disease control compared to untreated when an appropriate level of disease damage appears on untreated check leaf segments (6-8 days after application). The following compounds gave at least 80% control of Blumeria graminis: E/E-2.168, E/E-2.474, E/E-2.002; 5.561; 2.561; E/E-2.208; 2.513; 2.559; 2.557; 2.556; 2.555; 2.374; 2.552; 2.537; 2.533; 2.530; 2.528; 2.526; 2.519; 2.510; 2.516; 2.514; E/E-5.167; E/E-3.002; 2.512; 2.511

Glomerella lagenarium = Glomerella lagenarium (Colletotrichum lagenarium) / liquid culture (anthracnose); type: cell-based; settings: Colletotrichum orbiculare; at ≦200 ppm, liquid culture PDB, inhibition of growth photometrically 3-4 days after application; read-out: control of Glomerella lagenarium
Description: Glomerella lagenarium (Colletotfichum lagenarium)/Liquid Culture (Anthracnose): Conidia of the fungus from cryogenic storage were directly mixed into nutrient broth (PDB potato dextrose broth). After placing a DMSO solution of test compound into a 96-well microtiter, the nutrient broth containing the fungal spores was added. The test plates were incubated at 24° C. and the inhibition of growth is measured photometrically 3-4 days after application. […]-2.509; 5.561; 2.561; E/E-2.208; P.57; 2.513; 2.559; 2.556; 2.555; 2.374; 2.552; 2.548; 2.544; 2.541; 2.540; 2.539; 2.537; 2.536; 2.533; 2.531; 2.530; 2.528; 2.526; 2.519; 2.510; 2.516; 2.514; E/E-5.167; E/E-3.002; 2.512; 2.514; Z/E-2.474

[5] = test system: Phaeosphaeria nodorum (Septoria nodorum); experiment: Phaeosphaeria nodorum (Septoria nodorum) / wheat / leaf disc preventative (glume blotch); type: in vivo; settings: Parastagonospora nodorum, foliar, wheat leaf segments cv Kanzler, inoculated 2 days after application, assessed 5-7 days after application
Description: Phaeosphaeria nodorum (Septoria nodorum)/Wheat/Leaf Disc Preventative (Glume Blotch): Wheat leaf segments cv Kanzler were placed on agar in a 24-well plate and sprayed with formulated test compound diluted in water at an application rate of 200 ppm. The leaf disks are inoculated with a spore suspension of the fungus 2 days after application. The inoculated test leaf disks are incubated at 20° C. and 75% relative humidity under a light regime of 12/12 h (light/dark) in a climate cabinet and the activity of a compound is assessed as percent disease control compared to untreated when an appropriate level of disease damage appears in untreated check leaf disks (5-7 days after application). […]-2.508; 5.561; 2.561; E/E-2.208; P.57; 2.513; 2.559; 2.558; 2.557; 2.556; 2.555; 2.374; 2.544; 2.541; 2.539; 2.537; 2.536; 2.535; 2.533; 2.530; 2.526; 2.519; 2.510; 2.516; 2.514; E/E-5.167; E/E-3.002; 2.512

SMILES	inhibition of growth at up to 200 µg/mL [1] [%]	inhibition of growth at up to 200 µg/mL (Gaeumannomyces graminis) [%]	inhibition of growth at up to 200 µg/mL [2] [%]	inhibition of growth at up to 200 µg/mL [3] [%]	pest or weed control at 200 ppm [4] [%]	inhibition of growth at up to 200 µg/mL (Glomerella lagenarium) [%]	pest or weed control at 200 ppm [5] [%]
C/C(=N\OCC(C)(C)CO/N=C1\CCCc2ccc(C)nc21)c1ncc(C(F)(F)F)cc1Cl (single isomer, unassigned) [2.551 (fraction B)]	≥ 80	≥ 80	≥ 80	≥ 80			
Cc1ccc2c(n1)/C(=N/OCC(C)(C)CON=C(c1ccccn1)c1ccccn1)CCC2 [Compound 2.511]			≥ 80		≥ 80		
COC(=O)C/C(=N/OCC(C)(C)CO/N=C1\CCCc2ccc(C)nc21)c1ncc(Cl)cc1F [Compound 2.518]	≥ 80	≥ 80	≥ 80				
Cc1ccc2c(n1)/C(=N/OCC(C)(C)CO/N=C(/c1ccccn1)c1ncc(C(F)(F)F)cc1Cl)CCC2 [Compound 2.520]		≥ 80	≥ 80				
Cc1ccc2c(n1)/C(=N/OCC(C)(C)CO/N=C(/c1ccccc1)c1ncc(C(F)(F)F)cc1Cl)CCC2 [Compound 2.521]		≥ 80					
CCOC(=O)c1ccc(/C(C)=N\OCC(C)(C)CO/N=C2\CCCc3ccc(C)nc32)nc1C(F)(F)F [Compound 2.523]		≥ 80					
CC/C(=N/OCC(C)(C)CO/N=C1\CCCc2ccc(C)nc21)c1ccc(C(F)(F)F)cn1 [Compound 2.524]	≥ 80	≥ 80	≥ 80				
C/C(=N\OCC(C)(C)CO/N=C1\CCCc2ccc(C)nc21)c1cc(C#N)ccn1 [Compound 2.531]			≥ 80	≥ 80		≥ 80	
Cc1ccc2c(n1)/C(=N/OCC(C)(C)CO/N=C(\c1ccc(Cl)cc1)c1ccccn1)CCC2 [Compound 2.532]			≥ 80	≥ 80			
CSc1nc(/C=N/OCC(C)(C)CO/N=C2\CCCc3ccc(C)nc32)ccc1C#N [Compound 2.535]	≥ 80			≥ 80			≥ 80
C/C(=N\OCC(C)(C)CO/N=C1\CCCc2ccc(C)nc21)c1cccc(C#N)n1 [Compound 2.536]	≥ 80		≥ 80	≥ 80		≥ 80	≥ 80
Cc1ccc2c(n1)/C(=N/OCC(C)(C)CO/N=C(/c1cccc(Br)n1)c1ccccc1C)CCC2 [Compound 2.539]	≥ 80	≥ 80	≥ 80	≥ 80		≥ 80	≥ 80
COC(=O)c1ccc(C(F)(F)F)nc1/C(C)=N/OCC(C)(C)CO/N=C1\CCCc2ccc(C)nc21 [Compound 2.540]				≥ 80		≥ 80	
C/C(=N\OCC(C)(C)CO/N=C1\CCCc2ccc(C)nc21)c1cc(C(C)(C)C)ccn1 [Compound 2.541]	≥ 80		≥ 80	≥ 80		≥ 80	≥ 80
Cc1ccc2c(n1)/C(=N/OCC(C)(C)CO/N=C(/c1ncc(Cl)cc1Cl)C(C)C)CCC2 [Compound 2.542]	≥ 80			≥ 80			
Cc1ccc2c(n1)/C(=N/OCC(C)(C)CO/N=C(\c1ncc(Cl)cc1F)C(C)Cl)CCC2 (stereo not drawn) [Compound 2.545]				≥ 80			
C/C(=N\OCC(C)(C)CO/N=C1\CCCc2ccc(C)nc21)c1ncc(Cl)cc1O [Compound 2.548]	≥ 80			≥ 80		≥ 80	
CC/C(=N\OCC(C)(C)CO/N=C1\CCCc2ccc(C)nc21)c1ncc(Cl)cc1Cl [Compound 2.549]				≥ 80			
Cc1cc(C)nc(C(=NOCCCO/N=C2\CCCc3ccc(C)nc32)c2cc(C)cc(C)n2)c1 [Compound 2.557]		≥ 80	≥ 80		≥ 80		≥ 80
C/C(=N\OCC(C)(C)CO/N=C1\CCCc2ccc(C)nc21)c1ncc(Cl)cc1F [E/E-2.509]	≥ 80	≥ 80	≥ 80	≥ 80		≥ 80	
Cc1cccc(/C(=N\OCC(C)(C)CO/N=C2\CCCc3ccc(C)nc32)c2ccccc2)n1 [Z/E-2.474]			≥ 80			≥ 80	
